The results in this text go back to BindingDB's records for patent US20240216357 (Sichuan Huiyu Pharmaceutical, 2024).

SMILES strings stand for the structures.

The target of the assay is Lysine-specific histone demethylase 1A (Homo sapiens, UniProt O60341). Kind of assay: LSD1 Enzyme Activity Assay.
Take `Cc1noc2cc(-c3cc(C#N)c(N4CCC(N)CC4)nc3-c3ccc(C#N)c(F)c3)c(F)cc12` [US20240216357, Example 284]: inhibition was half-maximal at 633 nM (IC50).
To `COc1cc(N2CCC(N)CC2)nc(-c2ccc(C#N)c(F)c2)c1-c1ccc(Cl)c(O)c1` [US20240216357, Example 98] belongs 0.7 nM; to `COc1ccc(-c2nc(N3CCC(N)CC3)cc(C#N)c2-c2ccc(C#N)c(F)c2)cc1O` [US20240216357, Example 274], 23.8 nM.
`Cc1ccc(-c2c(-c3ccc(C#N)cc3)nc3c(N4CCC[C@@H](N)C4)nccn23)cc1` [US20240216357, Example 5] returned a half-inhibitory concentration (IC50) of 28.5 nM.
Turning to `COc1ccc(Nc2c(O)cc(N3CCC(N)CC3)nc2-c2ccc(C#N)c(F)c2)cc1F` [US20240216357, Example 64], inhibition was half-maximal at 119 nM (IC50).
To `COc1ccc(-c2c(-c3ccc(C#N)c(F)c3)nc(N3CCC(N)CC3)c3c2OCC(=O)N3)cc1O` [US20240216357, Example 280] belongs 0.272 nM.
The result for `COc1ccc(-c2c(-c3ccc(C#N)c(F)c3)nc(N3CCC(N)CC3)c3c2cnn3C)cc1O` [US20240216357, Example 285] reads 0.93 nM.
